Structures are written as SMILES. ≈ marks a conversion by molar mass, not a printed value.

Common to all, as to assay: MIC, agar dilution test
What all share (type): cell-based

Test [1] deals with E. coli A 261. The note with it: Escherichia coli, A261, Isosensitest medium, Denley multipoint inoculator. From the text: (§1) Agar dilution test (Isosensitest medium); Denley multi-
In test [2] the test system is E. coli Neumann. The note with it: Escherichia coli, Isosensitest medium, Denley multipoint inoculator.
Source text: as §1

In test [3] the test system is E. coli T 7. To be noted: Escherichia coli, T7, Isosensitest medium, Denley multipoint inoculator.
Source text: as §1

The test system of test [4] is Klebsiella 8085. The note with it: Isosensitest medium, Denley multipoint inoculator.
Source text: as §1

Turning to `CN1CCN(c2c(F)cc3c(=O)c(C(=O)O)cn4c3c2OC2CCCC24)CC1` (centres unmarked) [Example 3], the MIC in test [1], in test [2], in test [3] and in test [4] was 2 µg/mL (≈ 5.16 µM) each time.
Regarding `CC1(C)COc2c(N3CCNCC3)c(F)cc3c(=O)c(C(=O)O)cn1c23` [Example 7], the MIC (commonly the smallest concentration in the dilution series that meets the test's criterion for growth inhibition) is 0.125 µg/mL (≈ 0.346 µM) in test [1], 1 µg/mL (≈ 2.77 µM) in test [2], 0.5 µg/mL (≈ 1.38 µM) in test [3] and 0.25 µg/mL (≈ 0.692 µM) in test [4].

Values taken from patent US4847375A, “Antibacterial 1,8-bridged 4-quinoline-3-carboxylic acids” (Bayer Aktiengesellschaft, priority 1985, dated 1989).
